# What was measured:
# Assay type in all cases: biochemical
# [1] = target: T1, MMP-10 (Homo sapiens, UniProt P09238); experiment: In vitro MMP-10 inhibition test; conditions: human MMP-10
# T1 construct: purchased R&D Systems 910-MP
# Description: (§1) The MMP-mediated amidolytic cleavage of a suitable peptide substrate leads to an increase in fluorescent light here too. The signal intensity of the fluorescent light is directly proportional to the enzyme activity. The active concentration of a test compound at which half the enzyme is inhibited (50% signal intensity of the fluorescent light) is reported as the IC50 value.
# (§2) Recombinant MMP-10 (R&D Systems, 910-MP) is chemically activated in accordance with the manufacturer's instructions using APMA. 1 μl of the test compound to be analysed (as a solution in DMSO, suitable concentrations e.g. 1 nM to 30 μM) is pipetted into 24 μl of activated enzyme (final concentration e.g. 2 nM) in reaction buffer (50 mM Tris/HCl pH 7.5, 10 mM CaCl2, 150 mM NaCl, 0.05% Brij®-35) in a white 384-hole microtiter plate (MTP). The enzymatic reaction is started by adding the intramolecularly quenched Mca-Arg-Pro-Lys-Pro-Val-Glu-Nval-Trp-Arg-Lys(Dnp)-NH2 substrate (final concentration e.g. 10 μM; R&D Systems, ES-002), so as to result in a total test volume of 50 μl. The course of the MMP-10 reaction is measured by measuring the fluorescence intensity (excitation 320 nm, emission 410 nm) over a suitable period of time (e.g. over 120 min at a temperature of 32° C.).
# [2] = target: T2, human macrophage elastase (HME/hMMP-12) (Homo sapiens, UniProt P39900); experiment: In vitro HME inhibition test (standard or high-sensitivity); conditions: in some cases mean values, rounded to two significant figures
# T2 construct: purchased R&D Systems 917-MP
# Summary of the method: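 Autoactivated HME (0.5 nM; high-sensitivity format 0.05 nM, ~16 h) with 5 μM quenched Mca-PLGLEEA-Dap(Dnp)-NH2 substrate in HEPES pH 7.4, NaCl, CaCl2, ZnCl2, EDTA, Brij buffer, 2 h at 37° C. Fluorescence at ex 323/em 393 nm; IC50 from signal versus concentration.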
# [3] = target: T3, MMP-7 (Homo sapiens, UniProt P09237); experiment: In vitro MMP-7 inhibition test; conditions: human MMP-7
# T3 construct: purchased R&D Systems 907-MP
# T3 sequence (P09237 95-267): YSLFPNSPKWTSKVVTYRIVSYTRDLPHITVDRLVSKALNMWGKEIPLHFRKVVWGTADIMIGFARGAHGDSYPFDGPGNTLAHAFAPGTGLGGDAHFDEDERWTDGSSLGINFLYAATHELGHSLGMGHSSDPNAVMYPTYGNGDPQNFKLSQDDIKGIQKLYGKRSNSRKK
# Description: as §1
# as §2, with “Recombinant MMP-7 (from R&D” for “Recombinant MMP-10 (R&D”, “Systems, 907-MP)” for “Systems, 910-MP)”, “e.g. 0.5” for “e.g. 2”, “quenched Mca-Pro-Leu-Gly-Leu-Dpa(Dnp)-Ala-Arg-NH2” for “quenched Mca-Arg-Pro-Lys-Pro-Val-Glu-Nval-Trp-Arg-Lys(Dnp)-NH2”, “Systems, ES-001),” for “Systems, ES-002),”, “the MMP-7” for “the MMP-10”
# T2 sequence (P39900 106-470): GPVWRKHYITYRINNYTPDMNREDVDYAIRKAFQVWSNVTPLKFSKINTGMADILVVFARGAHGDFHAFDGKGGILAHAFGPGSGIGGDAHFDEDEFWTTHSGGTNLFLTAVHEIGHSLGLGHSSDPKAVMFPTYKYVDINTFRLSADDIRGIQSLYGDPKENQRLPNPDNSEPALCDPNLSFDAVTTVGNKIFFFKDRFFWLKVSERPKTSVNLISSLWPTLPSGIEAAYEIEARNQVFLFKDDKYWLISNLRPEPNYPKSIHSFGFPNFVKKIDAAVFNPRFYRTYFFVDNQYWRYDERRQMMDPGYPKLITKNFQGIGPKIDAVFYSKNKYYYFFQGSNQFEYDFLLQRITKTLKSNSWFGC
# T1 sequence (P09238 99-476): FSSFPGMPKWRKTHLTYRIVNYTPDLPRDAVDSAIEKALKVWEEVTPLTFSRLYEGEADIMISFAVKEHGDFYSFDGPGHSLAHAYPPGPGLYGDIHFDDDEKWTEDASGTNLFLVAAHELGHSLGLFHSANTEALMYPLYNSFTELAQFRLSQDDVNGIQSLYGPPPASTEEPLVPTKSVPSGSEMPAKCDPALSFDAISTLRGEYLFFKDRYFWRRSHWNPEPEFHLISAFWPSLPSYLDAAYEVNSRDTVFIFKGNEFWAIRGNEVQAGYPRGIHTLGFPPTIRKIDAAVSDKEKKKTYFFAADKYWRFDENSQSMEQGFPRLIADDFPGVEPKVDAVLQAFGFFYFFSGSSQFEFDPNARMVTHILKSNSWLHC
SMILES,IC50 [1],IC50 [2],IC50 [3]
"CCCCCCOc1ccc2c(C(=O)CC(CCn3nnc4ccccc4c3=O)C(=O)O)coc2c1 (single isomer, unassigned; (+)) [Example 100, (+)-4-[6-(Hexyloxy)-1-benzofur-3-yl]-4-oxo-2-[2-(4-oxo-1,2,3-benzotriazin-3(4H)-yl)ethyl]butanoic acid]",11 µM,0.18 nM,> 40 µM
"O=C(CC(CCn1nnc2ccccc2c1=O)C(=O)O)c1coc2cc(OCCC3CCOCC3)ccc12 (racemic) [Example 74, (+/−)-4-Oxo-2-[2-(4-oxo-1,2,3-benzotriazin-3(4H)-yl)ethyl]-4-{6-[2-(tetrahydro-2H-pyran-4-yl)ethoxy]-1-benzofur-3-yl}butanoic acid]",2.1 µM,0.18 nM,> 40 µM
"O=C(CC(CCn1nnc2ccccc2c1=O)C(=O)O)c1onc2cc(OCc3ccccc3)ccc12 (racemic) [Example 156, (+/−)-4-[6-(Benzyloxy)-2,1-benzoxazol-3-yl]-4-oxo-2-[2-(4-oxo-1,2,3-benzotriazin-3(4H)-yl)ethyl]butanoic acid]",28 µM,2.4 nM,> 40 µM
"O=C(CC(CCn1nnc2ccccc2c1=O)C(=O)O)c1cc2cc(OCCCC(F)(F)F)ccc2o1 (single isomer, unassigned; enantiomer 2) [Example 13, (+)-4-Oxo-2-[2-(4-oxo-1,2,3-benzotriazin-3(4H)-yl)ethyl]-4-[5-(4,4,4-trifluorobutoxy)-1-benzofur-2-yl]butanoic acid (enantiomer 2)]",15 µM,6.1 nM,> 40 µM
"CCCCCCCOc1ccc2cc(C(=O)CC(CCn3nnc4ccccc4c3=O)C(=O)O)oc2c1 (single isomer, unassigned; (+)) [Example 69, (+)-4-[6-(Heptyloxy)-1-benzofur-2-yl]-4-oxo-2-[2-(4-oxo-1,2,3-benzotriazin-3(4H)-yl)ethyl]butanoic acid acid]",28 µM,1 nM,> 40 µM
"O=C(CC(CCn1nnc2ccccc2c1=O)C(=O)O)c1noc2cc(OCC3CCCCC3)ccc12 (racemic) [Example 153, (+/−)-4-[6-(Cyclohexylmethoxy)-1,2-benzoxazol-3-yl]-4-oxo-2-[2-(4-oxo-1,2,3-benzotriazin-3(4H)-yl)ethyl]butanoic acid]",14 µM,1.3 nM,> 40 µM
"O=C(O)[C@H]1[C@H](Cn2nnc3ccc(C(F)(F)F)cc3c2=O)CC[C@@H]1C(=O)c1cc2cc(OCCc3ccccc3)ccc2o1 (racemic) [Example 157, (+/−)-(1RS,2SR,5RS)-2-{[4-Oxo-6-(trifluoromethyl)-1,2,3-benzotriazin-3(4H)-yl]methyl}-5-{[5-(2-phenylethoxy)-1-benzofur-2-yl]carbonyl}cyclopentanecarboxylic acid (racemate)]",0.19 µM,0.055 nM,0.16 µM
"CCCCCOc1ccc2c(C(=O)CC(CCn3nnc4ccccc4c3=O)C(=O)O)coc2c1 (racemic) [Example 89, (+/−)-4-Oxo-2-[2-(4-oxo-1,2,3-benzotriazin-3(4H)-yl)ethyl]-4-[6-(pentyloxy)-1-benzofur-3-yl]butanoic acid]",22 µM,0.35 nM,> 40 µM
"CCCCCCCOc1ccc2oc(C(=O)CC(CCn3nnc4ccccc4c3=O)C(=O)O)cc2c1 (racemic) [Example 31, (+/−)-4-[5-(Heptyloxy)-1-benzofur-2-yl]-4-oxo-2-[2-(4-oxo-1,2,3-benzotriazin-3(4H)-yl)ethyl]butanoic acid]",> 40 µM,4.8 nM,> 40 µM
"O=C(CC(CCn1nnc2ccccc2c1=O)C(=O)O)c1cc2cc(OCc3ccc(F)cc3)ccc2o1 (single isomer, unassigned; (+)) [Example 23, (+)-4-{5-[(4-Fluorobenzyl)oxy]-1-benzofur-2-yl}-4-oxo-2-[2-(4-oxo-1,2,3-benzotriazin-3(4H)-yl)ethyl]butanoic acid]",11 µM,0.81 nM,> 40 µM
"O=C(CC(CCn1nnc2ccccc2c1=O)C(=O)O)c1cc2cc(OCCc3ccccc3Cl)ccc2o1 (racemic) [Example 1, (+/−)-4-{5-[2-(2-Chlorophenyl)ethoxy]-1-benzofur-2-yl}-4-oxo-2-[2-(4-oxo-1,2,3-benzotriazin-3(4H)-yl)ethyl]butanoic acid]",28 µM,2.6 nM,> 40 µM
"O=C(CC(CCn1nnc2ccccc2c1=O)C(=O)O)c1coc2cc(OCC3CCCC3)ccc12 (single isomer, unassigned; (+)) [Example 80, (+)-4-[6-(Cyclopentylmethoxy)-1-benzofur-3-yl]-4-oxo-2-[2-(4-oxo-1,2,3-benzotriazin-3(4H)-yl)ethyl]butanoic acid]",12 µM,0.46 nM,> 40 µM
"O=C(CC(CCn1nnc2ccccc2c1=O)C(=O)O)c1cc2cc(OCCCc3ccccc3)ccc2o1 (racemic) [Example 37, (+/−)-4-Oxo-2-[2-(4-oxo-1,2,3-benzotriazin-3(4H)-yl)ethyl]-4-[5-(3-phenylpropoxy)-1-benzofur-2-yl]butanoic acid]",29 µM,4.6 nM,> 40 µM
"O=C(CC(CCn1nnc2ccccc2c1=O)C(=O)O)c1cc2cc(OCCC3CCOCC3)ccc2o1 (racemic) [Example 6, (+/−)-4-Oxo-2-[2-(4-oxo-1,2,3-benzotriazin-3(4H)-yl)ethyl]-4-{5-[2-(tetrahydro-2H-pyran-4-yl)ethoxy]-1-benzofur-2-yl}butanoic acid]",7 µM,4 nM,> 40 µM
"O=C(CC(CCn1nnc2ccccc2c1=O)C(=O)O)c1cc2cc(OCCc3ccc(Cl)cc3)ccc2o1 (racemic) [Example 2, (+/−)-4-{5-[2-(4-Chlorophenyl)ethoxy]-1-benzofur-2-yl}-4-oxo-2-[2-(4-oxo-1,2,3-benzotriazin-3(4H)-yl)ethyl]butanoic acid]",16 µM,2.6 nM,> 40 µM
"O=C(CC(CCn1nnc2ccccc2c1=O)C(=O)O)c1noc2cc(OCC3CC3)ccc12 (racemic) [Example 150, (+/−)-4-[6-(Cyclopropylmethoxy)-1,2-benzoxazol-3-yl]-4-oxo-2-[2-(4-oxo-1,2,3-benzotriazin-3(4H)-yl)ethyl]butanoic acid]",> 40 µM,3.8 nM,29 µM
"CCCCCOc1ccc2c(C(=O)CC(CCn3nnc4ccccc4c3=O)C(=O)O)coc2c1 (single isomer, unassigned) [Example 91, 4-Oxo-2-[2-(4-oxo-1,2,3-benzotriazin-3(4H)-yl)ethyl]-4-[6-(pentyloxy)-1-benzofur-3-yl]butanoic acid]",4.7 µM,0.23 nM,> 40 µM
"NC(=O)c1cccc(COc2ccc3oc(C(=O)CC(CCn4nnc5ccccc5c4=O)C(=O)O)cc3c2)c1 (single isomer, unassigned; (+)) [Example 34, (+)-4-{5-[(3-Carbamoylbenzyl)oxy]-1-benzofur-2-yl}-4-oxo-2-[2-(4-oxo-1,2,3-benzotriazin-3(4H)-yl)ethyl]butanoic acid]",14 µM,1.1 nM,25 µM
"O=C(CC(CCn1nnc2ccccc2c1=O)C(=O)O)c1cc2cc(OCCc3ccccc3)ccc2o1 (single isomer, unassigned; (+)) [Example 21, (+)-4-Oxo-2-[2-(4-oxo-1,2,3-benzotriazin-3(4H)-yl)ethyl]-4-[5-(2-phenylethoxy)-1-benzofur-2-yl]butanoic acid]",13 µM,2.2 nM,> 40 µM
